# From US11447471B2, “α,β-unsaturated amide compound” (KYOWA KIRIN CO., LTD., priority 2017, dated 2022)
# Columns and labels:
# Assay type in all cases: cell-based
# NCI-H322 cells = assay: Cell growth inhibitory effect on human lung cancer cell line (cell counting kit 8, 6 days); conditions: 144 h; human lung cancer cell line NCI-H322, 6 days incubation
# From the text: (§1) NCI-H226 cells, a human mesothelioma cell line (ATCC, CRL-5826), NCI-H322 cells, a human lung cancer cell line (the European Collection of Authenticated Cell Cultures, 95111734), OUTOKO cells, a human ovarian cancer cell line (JCRB cell bank, KRB1048) and […] were each subcultured by keeping the cell density under 80% in a RPMI1640 culture medium with 10% fetal bovine serum (FBS). NCI-H226 cells, NCI-H322 cells and SSP-25 cells were each suspended in the RPMI1640 culture medium mentioned above, and plated to a 96-well flat-bottom plate at 500 cells/well in each well, and incubated at 37° C. in an incubator with 5% CO2 for one day. After the incubation, the evaluation of cell growth inhibitory activity was started. OVTOKO cells were suspended in the RPMI1640 culture medium mentioned above, and plated to a 96-well flat-bottom plate at 250 cells/well in each well, and incubated it at 37° C. in an incubator with 5% CO2 for one day. After the incubation, the evaluation of the cell growth inhibitory activity was started. The next day, a test compound was serially diluted to 5 times of its final concentration in the RPM11640 culture medium mentioned above, and the diluted solution was added to each well. In this case, the final concentration of DMSO in each well was adjusted to 0.1%. After the test compound was added, cells were incubated at 37° C. in an incubator with 5% CO2 for 6 days. At the addition of the test compound and 6 days after the addition, the cell counting measurement was performed using a cell counting kit 8 (made by DOJINDO) according to a protocol equivalent to DOJINDO's recommendation. A reagent contained in the kit was added to each plate and color reaction was performed for 2 or 3 hours at 37° C. in an incubator with 5% CO2. After the reaction, an absorbance at wavelength of 450 nm was measured using a microplate reader. A growth inhibition rate was calculated according to the following formula, from which the concentration of a test compound at which cell growth was inhibited by 50% (GI50 value) was determined.
# NCI-H226 cells = assay: Cell growth inhibitory effect on human mesothelioma cell line (cell counting kit 8, 6 days); conditions: NCI-H226, 144 h
# From the text: as §1
# OVTOKO cells = assay: Cell growth inhibitory effect on human ovarian cancer cell line (cell counting kit 8, 6 days); conditions: 144 h, 6 days incubation
# From the text: as §1
Compound,GI50 (NCI-H322 cells),GI50 (NCI-H226 cells),GI50 (OVTOKO cells)
"C=CC(=O)NC1CCOc2nc(Oc3ccc(C(F)(F)F)cc3)ccc21 (stereo not drawn) [Compound 259, N-[7-{4-(Trifluoromethyl)phenoxy}-3,4-dihydro-2H-pyrano[2,3-b]pyridin-4-yl]acrylamide]",< 1000 nM,100 to 1000 nM,–
"C=CC(=O)NCc1ccc(Oc2ccc(C(F)(F)F)cc2)c2nc(C(F)(F)F)oc12 [Compound 248, N-([2-(Trifluoromethyl)-4-{4-(trifluoromethyl)phenoxy}benzo[d]oxazol-7-yl]methyl)acrylamide]",< 1000 nM,100 to 1000 nM,–
"C=CC(=O)NC1CCCOc2cc(Oc3ccc(C(F)(F)F)cc3)ccc21 (stereo not drawn) [Compound 261, N-[8-{4-(Trifluoromethyl)phenoxy}-2,3,4,5-tetrahydrobenzo[b]oxepin-5-yl]acrylamide]",–,100 to 1000 nM,–
"C=CC(=O)N[C@@H]1CC[C@H](Oc2ccc(Cl)c(Cl)c2)c2nc(Cl)ccc21 (relative stereo) [Compound 178, cis-N-{2-Chloro-8-(3,4-dichlorophenoxy)-5,6,7,8-tetrahydroquinolin-5-yl}acrylamide]",–,< 100 nM,–
"C=CC(=O)NC1CC[C@@H](Oc2ccc(Cl)cc2)c2nc(OC)ccc21 (stereo in doubt) [Compound 81, trans-N-{8-(4-Chlorophenoxy)-2-methoxy-5,6,7,8-tetrahydroquinolin-5-yl}acrylamide]",–,100 to 1000 nM,–
"C=CC(=O)N[C@@H]1CC[C@H](Oc2ccc(C(F)(F)F)cc2)c2nc(CC)ccc21 (relative stereo) [Compound 186, cis-N-[2-ethyl-8-{4-(trifluoromethyl)phenoxy}-5,6,7,8-tetrahydroquinolin-5-yl]acrylamide]",–,100 to 1000 nM,–
"C=CC(=O)NCc1nc2cc(Oc3ccc(C(F)(F)F)cc3)ccc2o1 [Compound 255, N-([5-{4-(Trifluoromethyl)phenoxy}benzo[d]oxazol-2-yl]methyl)acrylamide]",–,100 to 1000 nM,–
"C=CC(=O)NCc1ccc(CCc2ccc(C(F)(F)F)cc2)c2nc(C)oc12 [Compound 267, N-([2-Methyl-4-{4-(trifluoromethyl)phenethyl}benzo[d]oxazol-7-yl]methyl)acrylamide]",–,100 to 1000 nM,≤ 3000 nM
"C=CC(=O)NC1COc2c(Oc3ccc(C(F)(F)F)cc3)cccc21 (stereo not drawn) [Compound 264, N-[7-{4-(Trifluoromethyl)phenoxy}-2,3-dihydrobenzofuran-3-yl]acrylamide]",< 1000 nM,< 100 nM,–
"O=C(/C=C/C(F)(F)F)NCc1ccc(Oc2ccc(Cl)cc2)c2ncccc12 [Compound 135, (E)-N-[{8-(4-Chlorophenoxy)quinolin-5-yl}methyl]-4,4,4-trifluoro-2-butenamide]",–,100 to 1000 nM,–
"C=CC(=O)Nc1cncc(Oc2ccc(OC(C)C)nc2)c1 [Compound 110, N-[5-{(6-Isopropoxypyridin-3-yl)oxy}pyridin-3-yl]acrylamide]",–,100 to 1000 nM,–
"[H]/C=C/C(=O)NC1CCOc2c1ccc(Oc1ccc(C(F)(F)F)cc1)c2OC (racemic) [Compound 33, N-[8-Methoxy-7-{4-(trifluoromethyl)phenoxy}chroman-4-yl]acrylamide]",–,< 100 nM,≤ 3000 nM
"C=CC(=O)N[C@@H]1CC[C@H](Oc2ccc(C(F)(F)F)cc2)c2cnccc21 (stereo in doubt) [Compound 228, N-[8-{4-(Trifluoromethyl)phenoxy}-5,6,7,8-tetrahydroisoquinolin-5-yl]acrylamide]",< 1000 nM,–,–
"C=CC(=O)NCc1ccc(Oc2cnc(C(F)(F)F)nc2)c2ncccc12 [Compound 196, N-{(8-[{2-(Trifluoromethyl)pyrimidin-5-yl}oxy]quinolin-5-yl)methyl}acrylamide]",–,100 to 1000 nM,–
"[H]/C=C/C(=O)NC1CCOc2c1ccc(Oc1ccc(C(F)(F)F)cc1)c2F (racemic) [Compound 31, N-[8-Fluoro-7-{4-(trifluoromethyl)phenoxy}chroman-4-yl]acrylamide]",–,< 100 nM,≤ 3000 nM
C=CC(=O)NCc1cc(Oc2ccc(C(F)(F)F)cc2)c2ncccc2c1 [Compound 214],< 1000 nM,< 100 nM,–
"C=CC(=O)Nc1cncc(Oc2cncc(C(F)(F)F)c2)c1 [Compound 107, N-(5-[{5-(Trifluoromethyl)pyridin-3-yl}oxy]pyridin-3-yl)acrylamide]",–,–,≤ 3000 nM
"C=CC(=O)NC1COc2cc(C)c(Oc3ccc(C(F)(F)F)cc3)cc21 (stereo not drawn) [Compound 266, N-{6-Methyl-5-[4-(trifluoromethyl)phenoxy]-2,3-dihydrobenzofuran-3-yl}acrylamide]",< 1000 nM,100 to 1000 nM,–
"C=CC(=O)NC1CCOc2cc(Oc3ccc(C(F)(F)F)cc3)ccc21 (stereo not drawn) [Compound 5, N-[7-{4-(trifluoromethyl)phenoxy}chroman-4-yl]acrylamide]",–,–,≤ 3000 nM

Compound,GI50 (NCI-H322 cells),GI50 (NCI-H226 cells),GI50 (OVTOKO cells)
"C=CC(=O)Nc1cncc(Oc2ccc(C(F)(F)F)cc2)c1 [Compound 96, N-[5-{4-(Trifluoromethyl)phenoxy}pyridin-3-yl]acrylamide]",–,–,≤ 3000 nM
"C=CC(=O)Nc1ccc(Oc2ccccc2)c2nc(C)ccc12 [Compound 112, N-(2-Methyl-8-phenoxyquinolin-5-yl)acrylamide]",–,–,≤ 3000 nM
"[H]/C=C/C(=O)NC1CCOc2c1ccc(Oc1ccc(C(F)(F)F)cc1)c2C (stereo not drawn) [Compound 28, N-[8-Methyl-7-{4-(trifluoromethyl)phenoxy}chroman-4-yl]acrylamide]",–,–,≤ 3000 nM
"C=CC(=O)NC1COc2c(cccc2Oc2ccc(C(F)(F)F)nc2)C1 (stereo not drawn) [Compound 229, N-(8-[{6-(Trifluoromethyl)pyridin-3-yl}oxy]chroman-3-yl)acrylamide]",–,–,≤ 3000 nM
"C=CC(=O)NC1COc2c(Oc3ccc(C(F)(F)F)cc3)cccc2C1=O (racemic) [Compound 40, N-[4-Oxo-8-{4-(trifluoromethyl)phenoxy}chroman-3-yl]acrylamide]",–,–,≤ 3000 nM
"[H]/C=C/C(=O)NC1CCOc2c1ccc(Oc1ccc(Cl)cc1)c2C (stereo not drawn) [Compound 27, N-{7-(4-Chlorophenoxy)-8-methylchroman-4-yl}acrylamide]",–,–,≤ 3000 nM
"C=CC(=O)NCc1nc2c(Oc3ccc(C(F)(F)F)cc3)cccc2o1 [Compound 254, N-([4-{4-(Trifluoromethyl)phenoxy}benzo[d]oxazol-2-yl]methyl)acrylamide]",–,100 to 1000 nM,–
"C=CC(=O)NC1COc2c(cccc2Oc2cnc(C(F)(F)F)cn2)C1 (stereo not drawn) [Compound 157, N-(8-[{5-(Trifluoromethyl)pyrazin-2-yl}oxy]chroman-3-yl)acrylamide]",–,–,≤ 3000 nM
"C=CC(=O)NC1CCOc2c1ccc(Oc1ccc(C(F)(F)F)nc1)c2Cl (stereo not drawn) [Compound 168, N-(8-Chloro-7-[{6-(trifluoromethyl)pyridin-3-yl}oxy]chroman-4-yl)acrylamide]",–,–,≤ 3000 nM
"C=CC(=O)NC1COc2c(cccc2Oc2ccc(C(F)(F)F)cc2)C1 (stereo not drawn) [Compound 61, N-[8-{4-(Trifluoromethyl)phenoxy}chroman-3-yl]acrylamide]",–,–,≤ 3000 nM
"[H]/C=C/C(=O)NCc1ccc(Oc2ccc(C(F)(F)F)cc2)c2ncccc12 [Compound 138, N-([8-{4-(Trifluoromethyl)phenoxy}quinolin-5-yl]methyl)acrylamide]",–,–,≤ 3000 nM
"[H]/C=C/C(=O)NCc1ccc(Oc2ccc(C(F)(F)F)nc2)c2ncccc12 [Compound 143, N-{(8-[{6-(Trifluoromethyl)pyridin-3-yl}oxy]quinolin-5-yl)methyl}acrylamide]",–,–,≤ 3000 nM
"C=CC(=O)N[C@@H]1CC[C@H](Oc2ccccc2)c2ncccc21 (relative stereo) [Compound 67, cis-N-(8-Phenoxy-5,6,7,8-tetrahydroquinolin-5-yl)acrylamide]",–,100 to 1000 nM,–
"C=CC(=O)N[C@@H]1c2ccc(Oc3ccc(C(F)(F)F)cc3)cc2OC[C@H]1F (relative stereo) [Compound 22, trans-N-[3-Fluoro-7-{4-(trifluoromethyl)phenoxy}chroman-4-yl]acrylamide]",–,–,≤ 3000 nM
"C=CC(=O)NC1COc2c(cccc2Oc2cnc(C(F)(F)F)nc2)C1 (stereo not drawn) [Compound 155, N-(8-[{2-(Trifluoromethyl)pyrimidin-5-yl}oxy]chroman-3-yl)acrylamide]",–,–,≤ 3000 nM
"C=CC(=O)NC1CCOc2c1ccc(Oc1ccc(C(F)(F)F)nc1)c2Br (stereo not drawn) [Compound 169, N-(8-Bromo-7-[{6-(trifluoromethyl)pyridin-3-yl}oxy]chroman-4-yl)acrylamide]",–,–,≤ 3000 nM
"[H]/C=C/C(=O)NCc1cc(Oc2ccnc(C(F)(F)F)c2)nc2ccccc12 [Compound 151, N-{(2-[{2-(Trifluoromethyl)pyridin-4-yl}oxy]quinolin-4-yl)methyl}acrylamide]",–,–,≤ 3000 nM
"C=CC(=O)N[C@@H]1CC[C@H](Oc2cnc(Cl)c(Cl)c2)c2nc(Cl)ccc21 (relative stereo) [Compound 181, cis-N-[2-Chloro-8-{(5,6-dichloropyridin-3-yl)oxy}-5,6,7,8-tetrahydroquinolin-5-yl]acrylamide]",–,100 to 1000 nM,–
